Laboratory results published in patent US20090105245A1, “METHODS FOR TREATING MACULAR EDEMA AND OCULAR ANGIOGENESIS USING AN ANTI-INFLAMMATORY AGENT AND A RECEPTOR TYROSINE KINASE INHIBITOR” (priority 2006, published 2009).

How the values were obtained:
Assay type in all cases: in vivo
[1] = system: laser-induced choroidal neovascularization (CNV) in the mouse; assay: Mouse laser-induced choroidal neovascularization (CNV), prevention, intravitreal injection
Protocol: (§1) Methods. CNV was generated by laser-induced rupture of Bruch's membrane. Briefly, 4 to 5 week old male C57BL/6J mice were anesthetized using intraperitoneal administration of ketamine hydrochloride (100 mg/kg) and xylazine (5 mg/kg) and the pupils of both eyes dilated with topical ocular instillation of 1% tropicamide and 2.5% Mydfin®. One drop of topical cellulose (Gonioscopic®) was used to lubricate the cornea. A hand-held cover slip was applied to the cornea and used as a contact lens to aid visualization of the fundus. Three to four retinal burns were placed in randomly assigned eye (right or left eye for each mouse) using the Alcon 532 nm EyeLite laser with a slit lamp delivery system. The laser burns were used to generate a rupture in Bruch's membrane, which was indicated opthalmoscopically by the formation of a bubble under the retina. Only mice with laser burns that produced three bubbles per eye were included in the study. Burns were typically placed at the 3, 6, 9 or 12 o'clock positions in the posterior pole of the retina, avoiding the branch retinal arteries and veins.
Each mouse was randomly assigned into one of the following treatment groups: noninjected controls, sham-injected controls, vehicle-injected mice, or one of three RTKi-injected groups. […]

[2] = system: laser-induced choroidal neovascularization (CNV) in the mouse; assay: Mouse laser-induced CNV, prevention paradigm, oral gavage; conditions: for inhibition of CNV: oral, prevention paradigm
[3] = system: existing laser-induced choroidal neovascularization (CNV) in the mouse; assay: Mouse laser-induced CNV, regression of existing CNV, intravitreal injection at 7 days post-laser; conditions: single intravitreal injection, mouse (FIG. 4)
Protocol: as §1, with “veins. […]” for “veins.”
METHODS: CNV was generated by laser-induced rupture of Bruch's membrane as described above in Example 3. […] Choroidal flat mounts were analyzed as described above in Example 3.

**Q.** Cc1ccc(F)c(NC(=O)Nc2ccc(-c3cccc4[nH]nc(N)c34)cc2)c1 [Compound 86, N-[4-[3-amino-1H-indazol-4-yl]phenyl]-N′-(2-fluoro-5-methylphenyl)urea] was tested. Which “CNV vs vehicle injected eyes” value ([1]; 0.3% RTKi, 5 ul intravitreal (P=0.082)) did it give?
**A.** marginal statistical difference

**Q.** And the “inhibition of laser-induced CNV” value ([1]; single intravitreal injection, mouse (FIG. 3))?
**A.** inhibits laser-induced choroidal neovascularization (CNV)

**Q.** What about the “inhibition of CNV” value ([2]; 3 mg/kg/day) of the same compound?
**A.** no significant inhibition

**Q.** And the “inhibition of CNV” value ([2]; 20 mg/kg/d)?
**A.** complete inhibition of CNV

**Q.** And the “inhibition of laser-induced CNV” value ([2]; oral gavage, mouse (FIG. 6))?
**A.** inhibits laser-induced choroidal neovascularization (CNV)

**Q.** And the “regression of existing laser-induced CNV” value [3]?
**A.** induces regression of existing laser-induced choroidal neovascularization (CNV)
